The values that follow come from PMC12257394, “Design, Synthesis, and Biological Evaluation of Ferrocenyl–Cyclo-(Gly‑L‑Pro) Hybrids Sensitizing Multidrug-Resistant Cancer Cells to Anticancer Agents” (ACS Medicinal Chemistry Letters, 2025).

One series concerns SW620M cells. The series is described as follows: Synergy determination (Bliss model, SynergyFinder), SW620M. The format is cell-based, human. Particulars: drug methotrexate + additive; for synergy score: Bliss model. The source says:
(§1) In an ideal setting, the effect of cell exposure to a combination of a chemotherapeutic and an MDR inhibitor should be synergistic. […] The highest synergy scores identified an optimal concentration range where the combination exerted its maximal effect. […] In cisplatin-resistant SW620C cells, the low or lack of synergy observed for most compounds may be due to the additive effects of cisplatin and 4 rather than a true synergistic interaction. […]
(§2) To evaluate the potential interactions between putative ABC inhibitors and anticancer drugs, we utilized the Bliss independence model, as implemented in the SynergyFinder web application.13, 14 Synergy scores and the most synergistic area scores were calculated based on the normalized dose–response matrices. A synergy score below −10 indicates likely […]
(§3) above 10 is indicative of likely synergistic interactions.
(§4) All experiments were performed at least three times, and the data were statistically analyzed

In a further series the test system is SW620V cells. The series is described as follows: Synergy determination (Bliss model, SynergyFinder), SW620V. It is filed as cell-based, human. Particulars: drug vincristine + additive; for synergy score: Bliss model.
Description: as §1, §2, §3, §4

For the next series, the target named is T1, ABCB1 (Homo sapiens, UniProt P08183).
T1 construct: ABCB1-overexpressing SW620V cells; endogenous in cells; host or cells: SW620V (vincristine-resistant variant of SW620, developed in the authors' laboratory by drug selection)
The series is described as follows: UIC-2 antibody-binding assay in SW620V cells. The format is cell-based. Particulars: 1 μM compound, n = 3.
Description: (§5) To obtain deeper insight into the direct interactions between the investigated inhibitors and transporter protein molecules, we used two commercially available antibodies, UIC-2 and 5D3, which recognize the active forms of ABCB1 and ABCG2, respectively. These antibodies specifically recognize epitopes that are exposed when the transporter interacts with the allocrite.
(§6) A total of 106 parental SW620 cells expressing low level of ABC proteins or their multidrug - resistant variant SW620V cells (overexpressing ABCB1) or SW620Mito cells (overexpressing ABCG2) were suspended in 1 mL of complete culture medium supplemented with solvent (DMSO), a positive control (vincristine/mitoxantrone), or an investigated compound at a final concentration of 1 µM. APC-conjugated UIC2 anti-ABCB1/FITC-conjugated 5D3 anti-ABCG2 antibody or the respective isotype control was then added to a final concentration of 5 µg/mL, and the samples were incubated at 37°C for 60 min. Then, the cells were washed three times (100 × g for 10 min) with fresh medium and analyzed using a FACSymphony A1 (Becton, Dickinson and Company, New Jersey, USA) instrument. Results were expressed as a difference of median of fluorescence of a given sample (specific binding of antibody) and the respec tive isotype control (unspecific binding). […]
as §4

The target in the next series is T2, ABCG2 (Homo sapiens, UniProt Q9UNQ0).
T2 construct: ABCG2-overexpressing SW620C and SW620Mito; endogenous in cells; host or cells: SW620Mito (mitoxantrone-resistant variant of SW620, developed in the authors' laboratory by drug selection)
T2 sequence (Q9UNQ0 1-655): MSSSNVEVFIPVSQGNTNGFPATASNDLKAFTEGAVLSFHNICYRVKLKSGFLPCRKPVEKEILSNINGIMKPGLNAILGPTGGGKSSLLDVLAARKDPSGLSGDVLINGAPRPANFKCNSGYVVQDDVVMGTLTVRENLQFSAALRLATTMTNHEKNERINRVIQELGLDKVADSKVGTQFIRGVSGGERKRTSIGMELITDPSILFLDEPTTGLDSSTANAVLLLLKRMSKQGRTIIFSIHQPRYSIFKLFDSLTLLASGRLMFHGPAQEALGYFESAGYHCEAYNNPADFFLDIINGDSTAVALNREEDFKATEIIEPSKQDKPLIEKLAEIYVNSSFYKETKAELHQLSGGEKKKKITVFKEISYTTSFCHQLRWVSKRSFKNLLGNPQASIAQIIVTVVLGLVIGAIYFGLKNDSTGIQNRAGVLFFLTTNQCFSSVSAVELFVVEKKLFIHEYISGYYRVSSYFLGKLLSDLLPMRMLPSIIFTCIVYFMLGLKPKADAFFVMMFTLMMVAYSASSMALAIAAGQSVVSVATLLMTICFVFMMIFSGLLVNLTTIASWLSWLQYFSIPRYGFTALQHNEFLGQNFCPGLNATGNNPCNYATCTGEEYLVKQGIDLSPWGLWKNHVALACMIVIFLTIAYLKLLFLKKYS
Description: 5D3 antibody-binding assay in SW620Mito cells. It is filed as cell-based. The following applies: 1 μM compound, n = 3.
Description: as §5, §6, §4

Series [1] can be described thus: Neutral red uptake viability assay, SW620V. It is filed as cell-based, human. Particulars: human, SW620V cells (vincristine-resistant), 72 h, n = 3, read-out: Cytotoxic activity IC50 (95% CI).

Structures are written as SMILES. “Also recorded” adds a separate entry of the source. A value given as a limit tells only on which side of the number the result lay.

T1 sequence (P08183 whole entry): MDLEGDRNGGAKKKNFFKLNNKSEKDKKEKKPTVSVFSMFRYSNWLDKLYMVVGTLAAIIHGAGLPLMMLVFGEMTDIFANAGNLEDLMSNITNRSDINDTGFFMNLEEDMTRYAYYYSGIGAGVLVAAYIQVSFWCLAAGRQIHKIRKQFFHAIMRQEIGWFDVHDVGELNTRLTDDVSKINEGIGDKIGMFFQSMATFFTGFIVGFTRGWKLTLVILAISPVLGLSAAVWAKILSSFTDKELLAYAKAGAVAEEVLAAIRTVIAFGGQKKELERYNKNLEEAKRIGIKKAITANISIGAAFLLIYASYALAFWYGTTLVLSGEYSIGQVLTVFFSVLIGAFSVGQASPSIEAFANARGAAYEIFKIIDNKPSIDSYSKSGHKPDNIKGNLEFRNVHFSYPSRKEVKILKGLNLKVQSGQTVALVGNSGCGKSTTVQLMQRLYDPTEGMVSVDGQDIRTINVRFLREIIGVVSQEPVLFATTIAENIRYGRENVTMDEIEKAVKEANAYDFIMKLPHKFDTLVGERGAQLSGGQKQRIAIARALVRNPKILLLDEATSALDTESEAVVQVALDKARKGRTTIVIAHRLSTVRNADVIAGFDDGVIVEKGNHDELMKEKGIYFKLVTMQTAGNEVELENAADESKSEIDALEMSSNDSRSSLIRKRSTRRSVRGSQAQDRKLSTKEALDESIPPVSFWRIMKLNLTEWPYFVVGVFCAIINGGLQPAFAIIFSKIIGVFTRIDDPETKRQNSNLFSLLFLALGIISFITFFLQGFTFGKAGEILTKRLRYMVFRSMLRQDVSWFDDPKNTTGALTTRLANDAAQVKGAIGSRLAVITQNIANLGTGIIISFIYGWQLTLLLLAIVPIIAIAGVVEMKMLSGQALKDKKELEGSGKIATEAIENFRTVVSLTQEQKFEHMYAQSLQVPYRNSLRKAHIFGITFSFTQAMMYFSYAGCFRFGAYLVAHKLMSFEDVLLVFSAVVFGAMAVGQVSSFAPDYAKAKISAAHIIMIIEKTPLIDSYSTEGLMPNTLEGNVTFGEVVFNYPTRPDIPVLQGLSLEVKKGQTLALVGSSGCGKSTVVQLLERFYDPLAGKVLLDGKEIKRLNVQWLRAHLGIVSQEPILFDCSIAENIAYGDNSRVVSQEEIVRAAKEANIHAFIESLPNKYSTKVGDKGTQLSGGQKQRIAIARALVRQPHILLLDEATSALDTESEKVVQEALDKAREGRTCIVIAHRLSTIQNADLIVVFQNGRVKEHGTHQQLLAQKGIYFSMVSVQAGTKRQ

For the compound `O=C1N/C(=C\c2ccc(-[c-]3cccc3)cc2)C(=O)N2CCC[C@@H]12.[Fe+2].c1cc[cH-]c1` [(S,Z)-4d], the “most synergistic area score” value in the series on SW620M cells is 0.00; in the series with SW620V cells, 24.93. Also, the synergy score entry with SW620M cells is “–5.20”; with SW620V cells, 13.6. The “UIC-2 antibody binding to ABCB1” value at ABCB1 was “binding patterns expected for ABCB1 allocrites; also recorded: enhance UIC-2 antibody binding”. Further, the “5D3 antibody binding to ABCG2” value at ABCG2 is “recognized as ABCG2 allocrites”.

Take `O=C1N/C(=C\c2ccccc2-[c-]2cccc2)C(=O)N2CCC[C@@H]12.[Fe+2].c1cc[cH-]c1` [(S,Z)-4b]: the “most synergistic area score” value with SW620M cells came out at 1.57; in the series on SW620V cells, 27.24. For the same compound, the synergy score result is “–5.03” with SW620M cells and 7.15 in the series with SW620V cells. In addition, on ABCB1, the “UIC-2 antibody binding to ABCB1” value is given as “binding patterns expected for ABCB1 allocrites; also recorded: enhance UIC-2 antibody binding”. On ABCG2, the “5D3 antibody binding to ABCG2” value was “recognized as ABCG2 allocrites”.

One may read the IC50 as the concentration at which inhibition is half-maximal. As to `O=C1N/C(=C\c2ccccc2)C(=O)N2CCC[C@@H]12` [(S,Z)-4e], the IC50 at 72 h in series [1] is more than 100 µM.

Take `O=C1N/C(=C/c2ccccc2)C(=O)N2CCC[C@@H]12` [(S,E)-4e]: in series [1], the IC50 at 72 h was more than 100 µM.

For the compound `O=C1N/C(=C\[c-]2cccc2)C(=O)N2CCC[C@@H]12.[Fe+2].c1cc[cH-]c1` [(S,Z)-4a], the “most synergistic area score” value with SW620M cells is reported as 3.56; in the series with SW620V cells, 15.88. Moreover, the values for the synergy score result with SW620M cells and with SW620V cells were “–3.78” and 4.27, respectively. Besides, the “UIC-2 antibody binding to ABCB1” value on ABCB1 was “binding patterns expected for ABCB1 allocrites”. Besides, the “5D3 antibody binding to ABCG2” value on ABCG2 is recorded as “recognized as ABCG2 allocrites”.

With `O=C1N/C(=C/c2cccc(-[c-]3cccc3)c2)C(=O)N2CCC[C@@H]12.[Fe+2].c1cc[cH-]c1` [(S,E)-4c], in the series on SW620M cells, the “most synergistic area score” value came out at 0.00 and the synergy score result is given as “–2.83”. Also, at ABCB1, the “UIC-2 antibody binding to ABCB1” value is “no detectable interaction”. On ABCG2, the “5D3 antibody binding to ABCG2” value is given as “no detectable interaction”.
